Measurements taken from PubChem BioAssay (NCI).
Several values for one entry are separate records, joined by “and”; a condition that tells them apart may be missing. Identical values can stand only once.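 Tested at 5 concentrations; 48 h exposure; 96-well plates; endpoints linearly interpolated, else capped at highest concentration. GI50 = concentration required for 50% inhibition of growth. TGI: total growth inhibition.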

Columns and labels:
Test in all cases: DTP human tumour cell line panel, 48 h
786-0 renal = tested on: 786-0 renal
A498 renal = tested on: A498 renal
A549 NSCLC = tested on: A549 NSCLC
ACHN renal = tested on: ACHN renal
BT-549 breast = tested on: BT-549 breast
CAKI-1 renal = tested on: CAKI-1 renal
CCRF-CEM leukemia = tested on: CCRF-CEM leukemia
COLO 205 colon = tested on: COLO 205 colon
DU-145 prostate = tested on: DU-145 prostate
EKVX NSCLC = tested on: EKVX NSCLC
HCC-2998 colon = tested on: HCC-2998 colon
HCT-116 colon = tested on: HCT-116 colon
HCT-15 colon = tested on: HCT-15 colon
HL-60(TB) leukemia = tested on: HL-60(TB) leukemia
HOP-62 NSCLC = tested on: HOP-62 NSCLC
HOP-92 NSCLC = tested on: HOP-92 NSCLC
HS 578T breast = tested on: HS 578T breast
HT29 colon = tested on: HT29 colon
IGROV1 ovarian = tested on: IGROV1 ovarian
K-562 leukemia = tested on: K-562 leukemia
KM12 colon = tested on: KM12 colon
LOX IMVI melanoma = tested on: LOX IMVI melanoma
M14 melanoma = tested on: M14 melanoma
MALME-3M melanoma = tested on: MALME-3M melanoma
MCF7 breast = tested on: MCF7 breast
MDA-MB-231 breast = tested on: MDA-MB-231 breast
MDA-MB-435 = tested on: MDA-MB-435
MOLT-4 leukemia = tested on: MOLT-4 leukemia
NCI-H226 lung = tested on: NCI-H226 lung
NCI-H23 lung = tested on: NCI-H23 lung
NCI-H460 lung = tested on: NCI-H460 lung
NCI-H522 lung = tested on: NCI-H522 lung
NCI/ADR-RES ovarian = tested on: NCI/ADR-RES ovarian
OVCAR-3 ovarian = tested on: OVCAR-3 ovarian
OVCAR-4 ovarian = tested on: OVCAR-4 ovarian
OVCAR-5 ovarian = tested on: OVCAR-5 ovarian
OVCAR-8 ovarian = tested on: OVCAR-8 ovarian
PC-3 prostate = tested on: PC-3 prostate
RPMI-8226 leukemia = tested on: RPMI-8226 leukemia
RXF 393 renal = tested on: RXF 393 renal
SF-268 CNS = tested on: SF-268 CNS
SF-295 CNS = tested on: SF-295 CNS
SF-539 CNS = tested on: SF-539 CNS
SK-MEL-2 melanoma = tested on: SK-MEL-2 melanoma
SK-MEL-28 melanoma = tested on: SK-MEL-28 melanoma
SK-MEL-5 melanoma = tested on: SK-MEL-5 melanoma
SK-OV-3 ovarian = tested on: SK-OV-3 ovarian
SN12C renal = tested on: SN12C renal
SNB-19 CNS = tested on: SNB-19 CNS
SNB-75 CNS = tested on: SNB-75 CNS
SR leukemia = tested on: SR leukemia
SW-620 colon = tested on: SW-620 colon
T-47D breast = tested on: T-47D breast
TK-10 renal = tested on: TK-10 renal
U251 CNS = tested on: U251 CNS
UACC-257 melanoma = tested on: UACC-257 melanoma
UACC-62 melanoma = tested on: UACC-62 melanoma
UO-31 renal = tested on: UO-31 renal

In the case of `CC(C)C[C@@H](NC(=O)[C@@H](Cc1ccccc1)NC(=O)c1cnccn1)B1Oc2ccc(C[C@H](NC(=O)[C@H](Cc3ccc4c(c3)OB([C@@H](CC(C)C)NC(=O)[C@@H](Cc3ccccc3)NC(=O)c3cnccn3)O4)NC(=O)[C@@H](N)CC3CCC4OB([C@@H](CC(C)C)NC(=O)[C@@H](CC5CCCCC5)NC(=O)C5CNCCN5)OC4C3)C(=O)NCCCC[C@@H]3NC(=O)[C@@H](Cc4ccccc4)NC(=O)[C@H](CC(=O)O)NC(=O)CNC(=O)[C@H](CCCNC(=N)N)NC3=O)cc2O1` (stereo not given in full), the GI50 (786-0 renal) is reported as 3.68 nM and 2.5 nM, the GI50 (A498 renal) is reported as 3.36 nM and 2.5 nM and the TGI (A498 renal) is reported as 10.7 nM and 5.35 nM. For the same compound, the GI50 (A549 NSCLC) was 7.23 nM and 8.38 nM, the TGI (A549 NSCLC) was 321 nM and the GI50 (ACHN renal) was 3.95 nM and 2.5 nM. For the same compound, the TGI (ACHN renal) was 257 nM and 283 nM, the GI50 (BT-549 breast) was 2.58 nM and 2.5 nM and the TGI (BT-549 breast) was 8.12 nM and 3.01 nM. The GI50 (CAKI-1 renal) was 3.55 nM and 7.13 nM, the TGI (CAKI-1 renal) was 22.2 nM and 38.3 nM and the GI50 (CCRF-CEM leukemia) was 3.82 nM and 2.5 nM. For the same compound, the TGI (CCRF-CEM leukemia) was over 25000 nM, the GI50 (COLO 205 colon) was 5.51 nM and 5.55 nM and the TGI (COLO 205 colon) was 293 nM and 86.4 nM. For the same compound, the GI50 (DU-145 prostate) was 5.74 nM and 2.5 nM, the TGI (DU-145 prostate) was 2980 nM and the GI50 (EKVX NSCLC) was 10.6 nM and 7.75 nM. The TGI (EKVX NSCLC) was 527 nM and 304 nM, the GI50 (HCC-2998 colon) was 6.49 nM and 3.89 nM and the TGI (HCC-2998 colon) was 19.8 nM and 7.63 nM. For the same compound, the GI50 (HCT-116 colon) was 2.73 nM and 2.5 nM, the TGI (HCT-116 colon) was 16.4 nM and 2.9 nM and the GI50 (HCT-15 colon) was 4.85 nM and 3.49 nM. The TGI (HCT-15 colon) was 41 nM and 40.9 nM, the GI50 (HL-60(TB) leukemia) was 4.42 nM and the TGI (HL-60(TB) leukemia) was 853 nM. The GI50 (HOP-62 NSCLC) was 7.45 nM and 6.55 nM, the TGI (HOP-62 NSCLC) was 46.3 nM and 17.7 nM and the GI50 (HOP-92 NSCLC) was 3.69 nM and 2.5 nM. The TGI (HOP-92 NSCLC) was 26.7 nM and 9.53 nM, the GI50 (HS 578T breast) was 4.19 nM and 2.5 nM and the TGI (HS 578T breast) was over 25000 nM. The GI50 (HT29 colon) was 3.73 nM and 2.5 nM, the GI50 (IGROV1 ovarian) was 21.7 nM and 2.5 nM and the TGI (IGROV1 ovarian) was 250 nM and 917 nM. The GI50 (K-562 leukemia) was 0.713 nM and 2.5 nM, the TGI (K-562 leukemia) was over 25000 nM and the GI50 (KM12 colon) was 3.94 nM and 2.95 nM. For the same compound, the TGI (KM12 colon) was 15.2 nM and 8.16 nM, the GI50 (LOX IMVI melanoma) was 2.41 nM and < 2.5 nM and the TGI (LOX IMVI melanoma) was 6.6 nM and < 2.5 nM. The GI50 (M14 melanoma) was 3.22 nM and 2.5 nM, the GI50 (MALME-3M melanoma) was 3.23 nM and 2.5 nM and the TGI (MALME-3M melanoma) was 105 nM and 20.6 nM. The GI50 (MCF7 breast) was 3.78 nM and 2.5 nM, the TGI (MCF7 breast) was 439 nM and the GI50 (MDA-MB-231 breast) was 7.73 nM and 2.5 nM. The TGI (MDA-MB-231 breast) was 56 nM and 20.5 nM, the GI50 (MDA-MB-435) was 2.06 nM and < 2.5 nM and the TGI (MDA-MB-435) was 4.52 nM and < 2.5 nM. For the same compound, the GI50 (MOLT-4 leukemia) was 3.56 nM and 2.5 nM, the TGI (MOLT-4 leukemia) was over 25000 nM and the GI50 (NCI-H226 lung) was 2.29 nM. The TGI (NCI-H226 lung) was 4.54 nM, the GI50 (NCI-H23 lung) was 5.68 nM and 2.5 nM and the TGI (NCI-H23 lung) was 41.2 nM and 10.8 nM. For the same compound, the GI50 (NCI-H460 lung) was 25.3 nM and 7.96 nM, the TGI (NCI-H460 lung) was 115 nM and 32.2 nM and the GI50 (NCI-H522 lung) was 3.33 nM and 2.5 nM. The TGI (NCI-H522 lung) was 17.9 nM and 3.85 nM, the GI50 (NCI/ADR-RES ovarian) was 54.8 nM and 17.4 nM and the TGI (NCI/ADR-RES ovarian) was 669 nM and 148 nM. For the same compound, the GI50 (OVCAR-3 ovarian) was 2.53 nM and 2.5 nM, the TGI (OVCAR-3 ovarian) was 6.73 nM and 3.27 nM and the GI50 (OVCAR-4 ovarian) was 5.05 nM and 2.5 nM. The TGI (OVCAR-4 ovarian) was 181 nM and 548 nM, the GI50 (OVCAR-5 ovarian) was 7.84 nM and 3.82 nM and the TGI (OVCAR-5 ovarian) was 132 nM and 360 nM. The GI50 (OVCAR-8 ovarian) was 22 nM and 8.17 nM, the GI50 (PC-3 prostate) was 13.5 nM and 6.32 nM and the TGI (PC-3 prostate) was 186 nM and 60.4 nM. For the same compound, the GI50 (RPMI-8226 leukemia) was 4.32 nM and 2.5 nM, the TGI (RPMI-8226 leukemia) was 243 nM and 109 nM and the GI50 (RXF 393 renal) was 2.44 nM and < 2.5 nM. The TGI (RXF 393 renal) was 5.8 nM and < 2.5 nM, the GI50 (SF-268 CNS) was 4.1 nM and 2.8 nM and the TGI (SF-268 CNS) was 27.9 nM and 13.6 nM. The GI50 (SF-295 CNS) was 3.65 nM and 2.5 nM, the TGI (SF-295 CNS) was 17.2 nM and 7.68 nM and the GI50 (SF-539 CNS) was 2.51 nM and < 2.5 nM. For the same compound, the TGI (SF-539 CNS) was 7.22 nM and < 2.5 nM, the GI50 (SK-MEL-2 melanoma) was 5.45 nM and 2.5 nM and the TGI (SK-MEL-2 melanoma) was 64.9 nM and 9.2 nM. For the same compound, the GI50 (SK-MEL-28 melanoma) was 5.63 nM and 2.5 nM, the TGI (SK-MEL-28 melanoma) was 517 nM and 106 nM and the GI50 (SK-MEL-5 melanoma) was 3.01 nM and 2.5 nM. The TGI (SK-MEL-5 melanoma) was 8.71 nM and 4.81 nM, the GI50 (SK-OV-3 ovarian) was 30.9 nM and 7.54 nM and the TGI (SK-OV-3 ovarian) was 694 nM. For the same compound, the GI50 (SN12C renal) was 7.93 nM and 4.85 nM, the TGI (SN12C renal) was 80.4 nM and 31.9 nM and the GI50 (SNB-19 CNS) was 13.6 nM and 2.5 nM. It also gave a TGI (SNB-19 CNS) of 4700 nM, a GI50 (SNB-75 CNS) of 3.92 nM and a TGI (SNB-75 CNS) of 24.8 nM. The GI50 (SR leukemia) was 4.1 nM, the TGI (SR leukemia) was 244 nM and the GI50 (SW-620 colon) was 4.26 nM and 2.5 nM. The TGI (SW-620 colon) was 115 nM and 261 nM, the GI50 (T-47D breast) was 3.88 nM and 2.5 nM and the TGI (T-47D breast) was 41.1 nM and 11.7 nM. The GI50 (TK-10 renal) was 3.19 nM and 2.5 nM, the GI50 (U251 CNS) was 11.7 nM and 4.76 nM and the TGI (U251 CNS) was 149 nM and 21 nM. The GI50 (UACC-257 melanoma) was 4.33 nM and 3.35 nM, the TGI (UACC-257 melanoma) was 49.6 nM and 15.6 nM and the GI50 (UACC-62 melanoma) was 4.12 nM and 2.5 nM. For the same compound, the GI50 (UO-31 renal) was 4.28 nM and 2.5 nM and the TGI (UO-31 renal) was 102 nM and 14.8 nM.
